Here are results for one compound from patent US12331051B2 (priority 2021, dated 2025).

Like-named read-outs stand apart in the source and are kept apart here.

Data set [1] addresses ADRb2 (β2 adrenergic receptor) (Homo sapiens, UniProt P07550). In words: BRET-based G protein dissociation assay. The format is cell-based.
For data set [2], the target named is ADRa2B (α2B adrenergic receptor) (Homo sapiens, UniProt P18089). In words: BRET-based G protein dissociation assay. The format is cell-based. On the technique in general: Bioluminescence resonance energy transfer reports proximity on the nanometre scale.
Data set [3] has as its target T1, Serotonin 1B receptor (5-HT1BR) (Homo sapiens, UniProt P28222).
T1 construct: expressed in transfected cells; host or cells: HEK-293
Nature of the data set: Functional assay in HEK-293 cells (cAMP). The format is cell-based. On the procedure:
(§1) Neuro-receptor binding and functional effects of the “E559 polymorph” was examined by analyzing binding affinity [Ki (nM)], functional agonist activity [EC50 (nM)], and functional antagonist activity [IC50 (nM)] against a panel of key receptors in neurophysiological disorders. Binding and functional assays were performed at “E559 polymorph” concentrations of 0.0003, 0.003, 0.01, 0.03, 0.1, 0.3, 1, and 10 μM. In binding assays, cell membrane homogenates, expressing each receptor target, were incubated with the corresponding radio-ligand in absence or presence of several concentration of the “E559 polymorph” compound. The measurement of binding affinity of the “E559 polymorph” is represented in TABLE XIII by Ki (nM) which was calculated as percent inhibition of the binding of a radioactively labeled reference ligand at each receptor. In functional assays the HEK-293 cells expressing each receptor target were suspended in buffer and distribute in microplates and incubated for 30 minutes at room temperature or 37° C. in the presence of buffer alone (basal control), the reference agonist or antagonist, or the “E559 polymorph. Following incubation, the cells were lysed and the appropriate fluorescent probe (Ca2+ flux, cAMP, or IP1) were added for 60 minutes to measure the fluorescence transfer at the appropriate wavelength using a microplate reader. The cellular agonist effect (EC50) was calculated as a percent of control response to a known reference agonist and the cellular antagonist effect (IC50) was calculated as a percent inhibition of control reference agonist response for each receptor.
(§2) The functional agonist activity [EC50 (nM), Emax], and functional antagonist activity [IC50 (nM)] of the 5R:8S stereoisomer of the “E559 polymorph” (5R:8S E558) was compared with the “E559 polymorph” (a 5R:8R stereoisomer) at selected serotonin receptors. The assays were performed as described in Example 6.

A short description of data set [4]: Single-dose comparative pharmacokinetic study, IV and oral, fasted and fed. The format is in vivo, Beagle dogs. On the procedure:
A single-dose comparative pharmacokinetic (PK) study was conducted in Beagle dogs to assess the oral bioavailability and the effect of food on the “E559 polymorph” (FIG. 12). Four male dogs were used in 3 test groups in a cross-over design with at least 3 days washout period between each test group (Groups 1, 2 and 3). In Group 1, four male dogs received a single intravenous (IV) dose of 0.0324 mg/kg of the “polymorph E559”. In Group 2 the same four dogs received a single oral dose of 0.324 mg/kg of the “polymorph E559” in fasted state. In Group 3 the same four dogs received a single oral dose of 0.324 mg/kg of the “E559 polymorph” in the fed state (same oral dose amount as in Group 2). Blood samples were collected from all dogs at pre-dose and 0.08, 0.25, 0.5, 1, 2, 4, 8, and 24 hours post dose to measure the “E559 polymorph” levels by LC-MS/MS method conducted as described in Example 3.

Another data set deals with mice. Nature of the data set: Tolerance after repeated dosing, HTR to DOI challenge. It counts as in vivo, mouse. Conditions: IP once daily 7 days: DOI 10 mg/kg/day, E559 polymorph 3 mg/kg/day; DOI 1 mg/kg challenge 24 hours later. On the procedure:
To determine if repeated dosing of the “E559 polymorph” can induce tolerance in vivo, HTR experiment described in Examples 2 and 5 was repeated where mice received IP injections of vehicle, DOI (10 mg/kg/day), or the “E559 polymorph” (3 mg/kg/day; once daily for 7 consecutive days) and were then challenged with DOI (1 mg/kg) 24 hours later. Data shown in FIG. 22 are group means±standard deviation for the entire 60 minutes test session. Asterisks indicate statistical significances compared to the Vehicle control (Vehicle was saline).

The target in data set [5] is ADRa2A (α2A adrenergic receptor) (Homo sapiens, UniProt P08913). In words: BRET-based G protein dissociation assay. It counts as cell-based.
Data set [6] addresses T2, Serotonin 2B receptor (5-HT2BR) (Homo sapiens, UniProt P41595).
T2 construct: expressed in transfected cells; host or cells: HEK-293
In words: Functional assay in HEK-293 cells (IP1). It counts as cell-based. The method, then: as §1, §2

Data set [7] has as its target T3, 5-HT2A receptor (5-HT2AR) (Homo sapiens, UniProt P28223).
T3 construct: expressed in transfected cells; host or cells: HEK-293
In words: Functional assay in HEK-293 cells (IP1). It counts as cell-based. The method, then: as §1, §2

In data set [8] the target is T4, Serotonin 2C receptor (5-HT2CR) (Homo sapiens, UniProt P28335).
T4 construct: expressed in transfected cells; host or cells: HEK-293
T4 sequence (P28335 33-458): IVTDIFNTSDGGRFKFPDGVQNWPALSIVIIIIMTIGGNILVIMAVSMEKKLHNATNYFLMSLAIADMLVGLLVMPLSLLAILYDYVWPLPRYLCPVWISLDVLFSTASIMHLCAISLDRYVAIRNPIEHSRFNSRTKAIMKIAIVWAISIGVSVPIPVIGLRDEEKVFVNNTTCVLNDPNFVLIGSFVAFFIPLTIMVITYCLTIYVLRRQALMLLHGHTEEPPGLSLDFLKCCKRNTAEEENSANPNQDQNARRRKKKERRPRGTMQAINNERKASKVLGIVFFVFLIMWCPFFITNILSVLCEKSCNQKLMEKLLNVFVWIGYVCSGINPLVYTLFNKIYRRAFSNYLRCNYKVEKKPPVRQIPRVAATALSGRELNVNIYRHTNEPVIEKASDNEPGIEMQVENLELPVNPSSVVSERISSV
Nature of the data set: Functional assay in HEK-293 cells (IP1). The format is cell-based. On the procedure: Neuro-receptor binding and functional effects of the “E559 polymorph” was examined by analyzing binding affinity [Ki (nM)], functional agonist activity [EC50 (nM)], and functional antagonist activity [IC50 (nM)] against a panel of key receptors in neurophysiological disorders. Binding and functional assays were performed at “E559 polymorph” concentrations of 0.0003, 0.003, 0.01, 0.03, 0.1, 0.3, 1, and 10 μM. In binding assays, cell membrane homogenates, expressing each receptor target, were incubated with the corresponding radio-ligand in absence or presence of several concentration of the “E559 polymorph” compound. The measurement of binding affinity of the “E559 polymorph” is represented in TABLE XIII by Ki (nM) which was calculated as percent inhibition of the binding of a radioactively labeled reference ligand at each receptor. […] Following incubation, the cells were lysed and the appropriate fluorescent probe (Ca2+ flux, cAMP, or IP1) were added for 60 minutes to measure the fluorescence transfer at the appropriate wavelength using a microplate reader. The cellular agonist effect (EC50) was calculated as a percent of control response to a known reference agonist and the cellular antagonist effect (IC50) was calculated as a percent inhibition of control reference agonist response for each receptor.

Where [9] appears, read: HEK293, IP1, ligand 5-HT, read-out: Functional Assay (agonist) Emax.
Where [10] appears, read: read-out: Funcational Assay (antagonist) IC50, IP1, ligand 5-HT.
The mark [11] stands for this setting: read-out: Functional Assay (agonist) EC50, IP1, ligand 5-HT.

The EC50 is the concentration giving half of the maximal effect. Broadly, the IC50 is the concentration that inhibits the measured activity by half. What is called Emax is the maximal effect, on the per cent scale that the assay sets.

T3 sequence (P28223 whole entry): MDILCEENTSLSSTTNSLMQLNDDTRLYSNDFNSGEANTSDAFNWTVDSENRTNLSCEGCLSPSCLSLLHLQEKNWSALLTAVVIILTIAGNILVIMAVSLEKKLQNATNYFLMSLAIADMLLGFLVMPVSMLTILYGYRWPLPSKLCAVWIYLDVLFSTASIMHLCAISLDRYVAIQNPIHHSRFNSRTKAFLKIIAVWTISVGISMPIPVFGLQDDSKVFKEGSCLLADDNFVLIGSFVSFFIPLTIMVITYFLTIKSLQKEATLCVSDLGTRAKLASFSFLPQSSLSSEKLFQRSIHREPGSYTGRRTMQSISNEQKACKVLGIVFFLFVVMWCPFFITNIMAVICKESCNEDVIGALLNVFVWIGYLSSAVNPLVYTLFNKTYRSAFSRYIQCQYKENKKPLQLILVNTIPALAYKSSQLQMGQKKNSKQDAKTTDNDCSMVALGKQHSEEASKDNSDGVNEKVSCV
T2 sequence (P41595 whole entry): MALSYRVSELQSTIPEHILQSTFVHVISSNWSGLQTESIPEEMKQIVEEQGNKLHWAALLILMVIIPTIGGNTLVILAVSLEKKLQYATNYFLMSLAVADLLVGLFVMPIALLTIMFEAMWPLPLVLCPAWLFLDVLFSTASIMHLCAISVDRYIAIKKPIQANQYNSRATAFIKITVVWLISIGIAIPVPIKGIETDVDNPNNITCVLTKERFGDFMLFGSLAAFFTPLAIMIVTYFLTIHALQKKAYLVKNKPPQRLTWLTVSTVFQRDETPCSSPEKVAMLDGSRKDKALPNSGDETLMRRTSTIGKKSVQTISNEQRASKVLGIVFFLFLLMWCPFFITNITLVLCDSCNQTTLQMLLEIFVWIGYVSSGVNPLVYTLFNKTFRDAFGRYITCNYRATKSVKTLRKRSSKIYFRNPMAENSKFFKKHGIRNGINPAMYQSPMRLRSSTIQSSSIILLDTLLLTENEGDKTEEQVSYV
T1 sequence (P28222 whole entry): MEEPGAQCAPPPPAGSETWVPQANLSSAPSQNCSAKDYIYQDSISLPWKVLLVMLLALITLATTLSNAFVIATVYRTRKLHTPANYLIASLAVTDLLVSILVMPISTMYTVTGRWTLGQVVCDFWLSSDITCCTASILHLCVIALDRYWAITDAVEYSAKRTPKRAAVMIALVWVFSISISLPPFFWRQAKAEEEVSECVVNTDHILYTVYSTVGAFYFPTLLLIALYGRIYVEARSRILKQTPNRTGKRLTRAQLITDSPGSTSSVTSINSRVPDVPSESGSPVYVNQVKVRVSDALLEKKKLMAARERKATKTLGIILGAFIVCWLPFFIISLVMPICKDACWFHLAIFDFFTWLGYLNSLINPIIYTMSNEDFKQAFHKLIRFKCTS
Sequence of ADRb2 (β2 adrenergic receptor) (P07550 whole entry): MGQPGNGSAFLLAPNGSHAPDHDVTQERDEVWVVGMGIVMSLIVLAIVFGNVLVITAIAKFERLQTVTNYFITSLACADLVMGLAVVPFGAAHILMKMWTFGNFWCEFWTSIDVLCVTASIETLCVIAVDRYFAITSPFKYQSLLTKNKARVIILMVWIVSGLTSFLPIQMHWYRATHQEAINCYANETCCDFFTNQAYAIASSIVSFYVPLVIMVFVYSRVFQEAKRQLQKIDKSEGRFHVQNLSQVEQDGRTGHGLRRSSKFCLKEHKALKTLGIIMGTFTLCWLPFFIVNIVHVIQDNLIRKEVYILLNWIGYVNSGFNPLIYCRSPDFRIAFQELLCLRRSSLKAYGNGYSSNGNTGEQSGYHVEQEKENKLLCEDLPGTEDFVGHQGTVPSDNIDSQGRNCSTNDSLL
Sequence of ADRa2A (α2A adrenergic receptor) (P08913 whole entry): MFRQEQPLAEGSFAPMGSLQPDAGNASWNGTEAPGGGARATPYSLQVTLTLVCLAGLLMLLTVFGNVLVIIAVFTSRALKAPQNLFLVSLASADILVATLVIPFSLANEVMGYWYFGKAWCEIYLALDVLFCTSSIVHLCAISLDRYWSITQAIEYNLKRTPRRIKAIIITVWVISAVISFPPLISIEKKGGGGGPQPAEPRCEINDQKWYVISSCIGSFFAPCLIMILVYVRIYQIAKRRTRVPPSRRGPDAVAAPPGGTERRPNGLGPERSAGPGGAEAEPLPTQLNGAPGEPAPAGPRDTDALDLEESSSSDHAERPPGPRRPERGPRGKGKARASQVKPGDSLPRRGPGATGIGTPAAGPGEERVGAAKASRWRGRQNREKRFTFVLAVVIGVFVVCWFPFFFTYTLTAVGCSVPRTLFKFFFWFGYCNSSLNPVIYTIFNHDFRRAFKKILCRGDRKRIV
Sequence of ADRa2B (α2B adrenergic receptor) (P18089 whole entry): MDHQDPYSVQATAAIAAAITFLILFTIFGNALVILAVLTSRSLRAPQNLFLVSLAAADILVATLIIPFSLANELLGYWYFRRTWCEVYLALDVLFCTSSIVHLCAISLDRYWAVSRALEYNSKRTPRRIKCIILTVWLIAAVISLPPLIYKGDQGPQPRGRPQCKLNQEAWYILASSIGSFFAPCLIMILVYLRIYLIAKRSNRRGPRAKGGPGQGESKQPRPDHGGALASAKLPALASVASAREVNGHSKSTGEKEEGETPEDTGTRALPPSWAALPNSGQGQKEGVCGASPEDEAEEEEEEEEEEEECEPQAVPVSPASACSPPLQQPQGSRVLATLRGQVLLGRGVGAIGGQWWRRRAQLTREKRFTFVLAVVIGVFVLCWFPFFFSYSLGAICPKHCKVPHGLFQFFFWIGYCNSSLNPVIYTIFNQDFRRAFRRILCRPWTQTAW

With `CCN(CC)C(=O)[C@@H]1C=C2c3cccc4[nH]c(Br)c(c34)C[C@H]2N(C)C1` [E559, (5R, 8R)-2-Bromo-9,10-didehydro-N,N-diethyl-6-methylergoline-8-carboxamide hemi-D-tartrate], the concentration for a half-maximal effect (EC50) in data set [1] was 4.26 nM; in data set [3] (Functional (Agonist) EC50 (nM), cAMP), 6.69 nM; in [3] (Functional Assay (agonist) EC50 (nM), cAMP, ligand 5-HT), 6.96 nM; in [5] it was 282 nM; in data set [6] it was above 10000 nM; in data set [6] (setting [11]), above 10000 nM. For the same compound, the EC50 is 11 nM in data set [7], 11 nM in data set [7] (setting [11]) and above 10000 nM in data set [8]. Further, the Kb in data set [1] is 17.6 nM; in data set [2], 79.2 nM; in data set [5], 11.9 nM. The concentration for half-maximal inhibition (IC50) in data set [3] is above 10000 nM; in [6], 97 nM; in data set [6] (setting [10]) it was 97 nM; in data set [7], 24.9 nM; in data set [7] (setting [10]), 24.9 nM; in data set [8], 1100 nM. Besides, the Emax in [3] (HEK293, cAMP, ligand 5-HT, read-out: Functional Assay (agonist) Emax) amounted to 100%; in [6] (setting [9]), 0%; in data set [7] (setting [9]) it was 99%. Moreover, the oral bioavailability entry in data set [4] (oral 0.324 mg/kg vs IV 0.0324 mg/kg) is on record as “good oral bioavailability”. In addition, in [4] (oral 0.324 mg/kg, fasted vs fed), the “effect of food on oral bioavailability” value was “no differences in the mean absolute and relative oral bioavailability between fasted and fed dogs”. Besides, the “tolerance (tachyphylaxis) after repeated dosing, HTR count on DOI challenge” value with mice is “no tolerance was observed”.
